Results published in patent publication US12679824B2 (Hoffmann-La Roche Inc., priority 2020, dated 2026).
Values after ≈ are worked out from the molar mass of the structure shown.

Test system: Acinetobacter baumannii ATCC17978
Assay: Minimal Inhibitory Concentration (MIC) assay
Assay type: cell-based
Conditions: Acinetobacter baumannii ATCC17978; CAMHB; 20 hours at 35±2° C.; lowest concentration that inhibits visible growth; read-out: ATCC 17978 MIC
Procedure: Minimal Inhibitory Concentration Protocol (MIC) Assay:
Table 2 provides the in vitro potency of the compounds of present invention obtained against the strain Acinetobacter baumannii ATCC17978, which was assessed by an MIC (Minimal Inhibitory Concentration) assay as follows.
Test compounds were prepared from 10 mM DMSO stock solutions. The top dose was diluted from 10 mM to 2.5 mM by DMSO, followed by serial 2-fold 11 points dilutions in DMSO in a master plate (Greiner, Cat No: 651201). 2 μL compounds were transferred from the master plate into a new 96-well assay plate (Costar, 3599).
The growth medium […] Mueller Hinton Broth (CAMHB) was prepared by adding 22 g powder (BD, 212322) in 1 L purified water, autoclaved, and supplemented with sterilized CaCl2) (20 mg per liter) and MgCl2 (10 mg per liter).
Vials of each of the test microorganisms were maintained frozen in the vapor phase of a liquid nitrogen freezer. Took out the bacterial strain ATCC 17978 from liquid nitrogen freezer, thawed it at room temperature, and diluted the bacterial in the CAMHB medium to achieve a final inoculum of 2×10^5 CFU/mL. 98 μL of the adjusted bacteria suspension was dispensed to the assay plate and pipetted 5 times.
Then the assay plates were incubated for 20 hours at 35±2° C. in ambient air with humidity. Following incubation, MIC (μg/mL) value, the lowest concentration of drug that inhibits visible growth of the microorganism, was recorded by visual judgment of bacterial growth through magnification mirror of MIC reader, and the assay plates were photographed with Qcount system as image raw data. Meanwhile, the OD600 of assay plates was recorded with SpectraMax Plus384 as OD raw data.

Structure (SMILES)	MIC [µg/mL]
COCCOc1ccc(-n2cc(-c3cnc(C(=O)Nc4ccc(C(=O)N5CCN(C(=O)C6CCNCC6)CC5)c(Cl)c4)n3C)c(C(F)(F)F)n2)nc1.O=CO [Example A7, N-[3-chloro-4-[4-(piperidine-4-carbonyl)piperazine-1-carbonyl]phenyl]-5-[1-[5-(2-methoxyethoxy)-2-pyridyl]-3-(trifluoromethyl)pyrazol-4-yl]-1-methyl-imidazole-2-carboxamide]	1.16
Cc1nn(-c2ccc(N)cn2)cc1-c1cnc(C(=O)Nc2ccc(C(=O)N3CCN(C(=O)C4CCN(C)CC4)CC3)c(Cl)c2)n1C [Example C12, 5-[1-(5-amino-2-pyridyl)-3-methyl-pyrazol-4-yl]-N-[3-chloro-4-[4-(1-methylpiperidine-4-carbonyl)piperazine-1-carbonyl]phenyl]-1-methyl-imidazole-2-carboxamide]	38 (≈ 58.8 µM)
CCc1nn(-c2ccc(N)cn2)cc1-c1cnc(C(=O)Nc2ccc(C(=O)N3CCN(C(=O)C4CCN(C)CC4)CC3)c(Cl)c2)n1C [Example C13, 5-[1-(5-amino-2-pyridyl)-3-ethyl-pyrazol-4-yl]-N-[3-chloro-4-[4-(1-methylpiperidine-4-carbonyl)piperazine-1-carbonyl]phenyl]-1-methyl-imidazole-2-carboxamide]	16.5 (≈ 25 µM)
CN1CCC(C(=O)N2CCN(C(=O)c3ccc(NC(=O)c4ncc(-c5cn(-c6ccc(N)nn6)nc5C(F)(F)F)n4C)cc3Cl)CC2)CC1 [Example C14, 5-[1-(6-aminopyridazin-3-yl)-3-(trifluoromethyl)pyrazol-4-yl]-N-[3-chloro-4-[4-(1-methylpiperidine-4-carbonyl)piperazine-1-carbonyl]phenyl]-1-methyl-imidazole-2-carboxamide]	5.09 (≈ 7.27 µM)
CN(C)c1ccnc(-n2ncc(-c3cnc(C(=O)Nc4ccc(C(=O)N5CCN(C(=O)C6CCNCC6)CC5)c(Cl)c4)n3C)c2C(F)(F)F)n1.O=C(O)C(F)(F)F [Example A18, N-[3-chloro-4-[4-(piperidine-4-carbonyl)piperazine-1-carbonyl]phenyl]-5-[1-[4-(dimethylamino)pyrimidin-2-yl]-5-(trifluoromethyl)pyrazol-4-yl]-1-methyl-imidazole-2-carboxamide]	2.23
COc1cnc(-n2cc(-c3cnc(C(=O)Nc4ccc(C(=O)N5CCN(C(=O)C6CCNCC6)CC5)c(Cl)c4)n3C)c(C(F)(F)F)n2)nc1.O=CO [Example A4, N-[3-chloro-4-[4-(piperidine-4-carbonyl)piperazine-1-carbonyl]phenyl]-5-[1-(5-methoxypyrimidin-2-yl)-3-(trifluoromethyl)pyrazol-4-yl]-1-methyl-imidazole-2-carboxamide]	2.19

Other lines, results leading:

MIC [µg/mL]	Structure (SMILES)
1.12	CNc1ccc(-n2cc(-c3cnc(C(=O)Nc4ccc(C(=O)N5CCN(C(=O)[C@@H]6CCNC[C@H]6O)CC5)c(Cl)c4)n3C)c(C(F)(F)F)n2)nc1.O=CO [Example D2]
4.41	Cn1c(-c2cn(-c3ncccn3)nc2C(F)(F)F)cnc1C(=O)Nc1ccc(C(=O)N[C@H]2[C@@H]3CN(C(=O)C4CCNCC4)C[C@@H]32)c(Cl)c1.O=CO [Example F3, N-[3-chloro-4-[[(1S,5R)-3-(piperidine-4-carbonyl)-3-azabicyclo[3.1.0]hexan-6-yl]carbamoyl]phenyl]-1-methyl-5-[1-pyrimidin-2-yl-3-(trifluoromethyl)pyrazol-4-yl]imidazole-2-carboxamide]
4.43	Cn1c(-c2cn(-c3ncccn3)nc2C(F)(F)F)cnc1C(=O)Nc1ccc(C(=O)N[C@H]2[C@@H]3CN(C(=O)[C@@H]4C[C@@H](O)CN4)C[C@@H]32)c(Cl)c1.O=CO [Example F2, N-[3-chloro-4-[[(1R,5S)-3-[(2S,4R)-4-hydroxypyrrolidine-2-carbonyl]-3-azabicyclo[3.1.0]hexan-6-yl]carbamoyl]phenyl]-1-methyl-5-[1-pyrimidin-2-yl-3-(trifluoromethyl)pyrazol-4-yl]imidazole-2-carboxamide]
1.16	CNc1ccc(-n2cc(-c3cnc(C(=O)Nc4ccc(C(=O)N5CCN(C(=O)C6(O)CCNCC6)CC5)c(Cl)c4)n3C)c(C(F)(F)F)n2)nc1.O=CO [Example D3, N-[3-chloro-4-[4-(4-hydroxypiperidine-4-carbonyl)piperazine-1-carbonyl]phenyl]-1-methyl-5-[1-[5-(methylamino)-2-pyridyl]-3-(trifluoromethyl)pyrazol-4-yl]imidazole-2-carboxamide]

Same assay, conditions: Acinetobacter baumannii, ATCC17978, 20 h, read-out: ATCC 17978 MIC

Structure (SMILES)	MIC [µg/mL]
CNc1ccc(-n2cc(-c3cnc(C(=O)Nc4ccc(C(=O)N5CCN(C(=O)C6CCNCC6)CC5)c(Cl)c4)n3C)c(C(F)(F)F)n2)nc1 [Example D1, N-[3-chloro-4-[4-(piperidine-4-carbonyl)piperazine-1-carbonyl]phenyl]-1-methyl-5-[1-[5-(methylamino)-2-pyridyl]-3-(trifluoromethyl)pyrazol-4-yl]imidazole-2-carboxamide]	0.55 (≈ 0.787 µM)
